In brackets after ≈: the same amount, converted by molar mass. Several values for one entry are separate records, joined by “and”; a condition that tells them apart may be missing. Equal entries are not always repeated. Where two headings read alike, the source gives them in different places.
Columns and labels:
[1] = 1.0 mg/mL in water
Experimental: Five aliquots of each compound were prepared by dissolving them to 1.0 mg/mL in HPLC grade water (Fisher Scientific, USA). A total of 2 aliquots of the solution were placed in a 37°C stability chamber, and 2 aliquots were placed in a 50°C chamber. Samples were collected on days 0, 2 and 7, centrifuged at 12,000 x g for 5 min, and the supernatants were transferred to a fresh tube. Each sample was diluted 1:4 with 0.05% trifluoroacetic acid (TFA) and the purity and quantity were analyzed by HPLC as described above.

C. difficile = experiment: microbe, parasite or virus in culture; type: cell-based, Clostridium difficile
Experimental: MIC testing for C. difficile was performed by Eurofins Panlabs Taiwan LTD based on modifications from the CLSI M11-A8 broth dilution method for Bacteroides fragilis susceptibility testing. Briefly, Reinforced Clostridial Medium (RCM) was pre-reduced by over-night incubation in an anaerobic chamber (80% N2, 10% CO2, and 10% H2) prior to use. MU1140 and variants were dissolved in 100% DMSO, diluted by 2-fold serial dilution in 100% DMSO, for a total of 11 concentrations. A 4 μL aliquot of each dilution was added to 96 μL RCM in wells of a 96 well plate using a Biomek FX instrument (Beckman Coulter, USA), followed by the addition of C. difficile suspension, in RCM, 100 μL/well. The final bacterial count was 2 x 10^5 to 1 x 10^6 colony forming units/mL, in 200 μL per assay well. […] Assay plates were incubated at 35°C for 46 to 48 hr in the anaerobic chamber (A35 Anaerobic Workstation, Don Whitley, UK). Following incubation, test plates were visually examined and each well was scored for growth then the MIC was recorded as the lowest concentration that results in complete inhibition of growth. Each test substance was evaluated in duplicate. Vehicle-control and vancomycin were used as blank and positive controls, respectively. The MIC values of the vancomycin controls were consistent with the historical data against test strains (data not shown).

[2] = Solubility 5% D-mannitol, 5% D-mannitol in water, visual assessment
Experimental: To that end, approximately 10 mg of each compound was weighed on a high-precision balance and dispensed into a 1.5 mL microfuge tube.
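Throughout, for Forced degradation Δ Conc: purity and concentration determined by HPLC on aqueous solutions kept in a stability chamber, with samples analyzed at day 0 and after incubation.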
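Throughout, for Forced degradation Δ Purity: purity and concentration determined by HPLC on aqueous solutions kept in a stability chamber, with samples analyzed at day 0 and after incubation.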

Row | Structure (SMILES) | Forced degradation Δ Conc ([1]; 2 Days at 37°C) | Forced degradation Δ Purity ([1]; 2 Days at 37°C) | Forced degradation Δ Conc ([1]; 2 Days at +50°C) | Forced degradation Δ Purity ([1]; 2 Days at +50°C) | Forced degradation Δ Conc ([1]; 7 Days at 37°C) | Forced degradation Δ Purity ([1]; 7 Days at 37°C) | Forced degradation Δ Conc ([1]; 7 Days at +50°C) | Forced degradation Δ Purity ([1]; 7 Days at +50°C) | MIC 50 (C. difficile) | MIC 90 (C. difficile) | MIC Mode (C. difficile) | MIC Range (C. difficile) | Minimum Inhibitory Concentration C. difficile 103-1 (C. difficile) | Minimum Inhibitory Concentration C. difficile 107-1 (C. difficile) | Minimum Inhibitory Concentration C. difficile ATCC 9689 (C. difficile) | Minimum Inhibitory Concentration C. difficile ATCC 43597 (C. difficile) | Minimum Inhibitory Concentration C. difficile ATCC BAA-1805 (C. difficile) | Minimum Inhibitory Concentration C. difficile ATCC BAA-1808 (C. difficile) | Minimum Inhibitory Concentration C. difficile ATCC BAA-1874 (C. difficile) | Minimum Inhibitory Concentration C. difficile ATCC BAA-1875 (C. difficile) | other results
1 | C=C1NC(=O)[C@H](Cc2c[nH]c3ccccc23)NC(=O)[C@H](NC(=O)[C@H](CCCCN)NC(=O)[C@@H](N)CC(C)C)CSC[C@@H](C(=O)N[C@H]2C(=O)N3CCC[C@H]3C(=O)NCC(=O)N[C@H](C(=O)N[C@@H](C)C(=O)N[C@@H](CC(=O)O)C(=O)N/C(=C\C)C(=O)NCC(=O)N[C@@H]3CSC[C@@H]4NC(=O)[C@H](Cc5ccc(O)cc5)NC(=O)[C@@H](CS/C=C\NC4=O)NC(=O)[C@H](CC(N)=O)NC(=O)[C@H](Cc4ccccc4)NC3=O)CS[C@H]2C)NC(=O)[C@H](CC(C)C)NC1=O [OG705] | -11.4% and -11% | -0.29% | -11% | -1.32% | -12.3% and -12% | -0.61% | -26% | -3.22% | 1 µg/mL (≈ 0.457 µM) | 2 µg/mL (≈ 0.913 µM) | 1 µg/mL (≈ 0.457 µM) | 0.5 to 2 µg/mL | 0.5 µg/mL | 2 µg/mL | 1 µg/mL | 1 µg/mL | 1 µg/mL | 1 µg/mL | 1 µg/mL | 1 µg/mL | –
2 | C=C1NC(=O)[C@H](Cc2c[nH]c3ccccc23)NC(=O)[C@H](NC(=O)[C@H](CCCCN)NC(=O)[C@@H](N)[C@@H](C)CC)CSC[C@@H](C(=O)N[C@H]2C(=O)N3CCC[C@H]3C(=O)NCC(=O)N[C@H](C(=O)N[C@@H](C)C(=O)N[C@@H](CC(N)=O)C(=O)N/C(=C\C)C(=O)NCC(=O)N[C@@H]3CSC[C@@H]4NC(=O)[C@H](Cc5ccc(O)cc5)NC(=O)[C@@H](CS/C=C\NC4=O)NC(=O)[C@H](CC(N)=O)NC(=O)[C@H](Cc4ccccc4)NC3=O)CS[C@H]2C)NC(=O)[C@H](CC(C)C)NC1=O [OG706] | -11.3% and -11% | -1.15% | -23% | -8.05% | -20% | -6.64% | -50.1% and -50% | -21.46% | 0.5 µg/mL (≈ 0.228 µM) | 1 µg/mL (≈ 0.457 µM) | 0.5 µg/mL (≈ 0.228 µM) | 0.125 to 1 µg/mL | 0.125 µg/mL | 1 µg/mL | 0.5 µg/mL | 0.25 µg/mL | 0.25 µg/mL | 0.5 µg/mL | 0.5 µg/mL | 0.5 µg/mL | solubility [2]: 18 to 24 mg/mL (≈ 8220 to 11000 µM)
3 | C=C1NC(=O)[C@H](Cc2c[nH]c3ccccc23)NC(=O)[C@H](NC(=O)[C@H](CCCCN)NC(=O)[C@@H](N)CC(C)C)CSC[C@@H](C(=O)N[C@H]2C(=O)N3CCC[C@H]3C(=O)NCC(=O)N[C@H](C(=O)N[C@@H](C)C(=O)N[C@@H](CC(N)=O)C(=O)N/C(=C\C)C(=O)NCC(=O)N[C@@H]3CSC[C@@H]4NC(=O)[C@H](Cc5ccc(O)cc5)NC(=O)[C@@H](CS/C=C\NC4=O)NC(=O)[C@H](CC(N)=O)NC(=O)[C@H](Cc4ccccc4)NC3=O)CS[C@H]2C)NC(=O)[C@H](CC(C)C)NC1=O [OG712] | -4.6% and -5% | -0.21% | -8.7% and -9% | -3.01% | -9.3% and -9% | -4.63% | -45.2% and -45% | – | 0.25 µg/mL (≈ 0.114 µM) | 0.5 µg/mL (≈ 0.228 µM) | 0.25 µg/mL (≈ 0.114 µM) | 0.125 to 0.5 µg/mL | 0.125 µg/mL | 0.5 µg/mL | 0.5 µg/mL | 0.25 µg/mL | 0.25 µg/mL | 0.25 µg/mL | 0.25 µg/mL | 0.5 µg/mL | solubility [2]: 12 mg/mL (≈ 5480 µM)
4 | C=C1NC(=O)[C@H](Cc2c[nH]c3ccccc23)NC(=O)[C@H](NC(=O)[C@H](CCCCN)NC(=O)[C@@H](N)CC(C)C)CSC[C@@H](C(=O)N[C@H]2C(=O)N3CCC[C@H]3C(=O)NCC(=O)N[C@H](C(=O)N[C@@H](C)C(=O)N[C@@H](C)C(=O)N/C(=C\C)C(=O)NCC(=O)N[C@@H]3CSC[C@@H]4NC(=O)[C@H](Cc5ccc(O)cc5)NC(=O)[C@@H](CS/C=C\NC4=O)NC(=O)[C@H](CC(N)=O)NC(=O)[C@H](Cc4ccccc4)NC3=O)CS[C@H]2C)NC(=O)[C@H](CC(C)C)NC1=O [OG713] | -11.9% and -12% | -0.06% | -16.9% and -17% | -1.51% | -8.8% and -9% | -0.56% | -41% | -6.98% | 0.5 µg/mL (≈ 0.233 µM) | 0.5 µg/mL (≈ 0.233 µM) | 0.5 µg/mL (≈ 0.233 µM) | 0.25 to 0.5 µg/mL | 0.25 µg/mL | 0.5 µg/mL | 0.5 µg/mL | 0.5 µg/mL | 0.25 µg/mL | 0.5 µg/mL | 0.5 µg/mL | 0.5 µg/mL | –
5 | C=C1NC(=O)[C@H](Cc2c[nH]c3ccccc23)NC(=O)[C@H](NC(=O)[C@H](CCCCN)NC(=O)[C@@H](N)C(C)C)CSC[C@@H](C(=O)N[C@H]2C(=O)N3CCC[C@H]3C(=O)NCC(=O)N[C@H](C(=O)N[C@@H](C)C(=O)N[C@@H](CC(N)=O)C(=O)N/C(=C\C)C(=O)NCC(=O)N[C@@H]3CSC[C@@H]4NC(=O)[C@H](Cc5ccc(O)cc5)NC(=O)[C@@H](CS/C=C\NC4=O)NC(=O)[C@H](CC(N)=O)NC(=O)[C@H](Cc4ccccc4)NC3=O)CS[C@H]2C)NC(=O)[C@H](CC(C)C)NC1=O [OG716] | -7.4% and -7% | -0.31% | -16.9% and -17% | -3.67% | -14.8% and -15% | -5.20% | -47% | -19.77% | 0.25 µg/mL (≈ 0.115 µM) | 0.5 µg/mL (≈ 0.23 µM) | 0.5 µg/mL (≈ 0.23 µM) | 0.25 to 0.5 µg/mL | 0.25 µg/mL | 0.5 µg/mL | 0.5 µg/mL | 0.25 µg/mL | 0.25 µg/mL | 0.25 µg/mL | 0.5 µg/mL | 0.5 µg/mL | solubility [2]: 12 to 18 mg/mL (≈ 5520 to 8280 µM)
6 | C=C1NC(=O)[C@H](Cc2c[nH]c3ccccc23)NC(=O)[C@H](NC(=O)[C@H](CCCCN)NC(=O)[C@@H](N)[C@@H](C)CC)CSC[C@@H](C(=O)N[C@H]2C(=O)N3CCC[C@H]3C(=O)NCC(=O)N[C@H](C(=O)N[C@@H](C)C(=O)N[C@@H](CC(N)=O)C(=O)N/C(=C\C)C(=O)NCC(=O)N[C@@H]3CSC[C@@H]4NC(=O)[C@H](Cc5ccccc5)NC(=O)[C@@H](CS/C=C\NC4=O)NC(=O)[C@H](CC(N)=O)NC(=O)[C@H](Cc4ccccc4)NC3=O)CS[C@H]2C)NC(=O)[C@H](CC(C)C)NC1=O [OG718] | -9.1% and -9% | -2.07% | -29.4% and -29% | -4.90% | -21% | -7.42% | -43.8% and -44% | -12.84% | 0.5 µg/mL (≈ 0.23 µM) | 1 µg/mL (≈ 0.46 µM) | 0.5 µg/mL (≈ 0.23 µM) | 0.25 to 1 µg/mL | 0.25 µg/mL | 0.5 µg/mL | 0.5 µg/mL | 0.5 µg/mL | 0.5 µg/mL | 0.25 µg/mL | 0.5 µg/mL | 1 µg/mL | solubility [2]: > 24 mg/mL
